In assay [1] the test system is tumor. The conditions noted are these: cited from earlier work.
Assay [2] has as its system lymphocytic leukemia P388. Description: P388 in vivo lymphocytic leukemia test. Further details: species or system male or female CD2 F1 mice. The conditions noted are these: for P388 in vivo T/C × 100: two single doses, four-day interval; for Number of animals surviving 30 days and considered "cured": six to seven animals per group. How it is done: The in vivo lymphocytic leukemia P388 test is carried out by the United States National Cancer Institute. The animals used are either male or female CD2 F1 mice. There are six to seven animals per test group. The tumor transplant is by intraperitoneal injection of dilute ascitic fluid containing cells of lymphocytic leukemia P388. The test compounds are administered intraperitoneally in two single doses with a four-day interval between doses at various dose levels following tumor inoculation. The animals are weighed and survivors are recorded on a regular basis for 30 days. A ratio of survival time for treated (T)/control (C) animals is calculated. The criterion for efficacy is T/C×100>125%. The positive control compound in this test is 1,4-dihydroxy-5,8-[bis[[2-[(2-hydroxyethyl)amino]-ethyl]]amino]-9,10-anthracenedione given at dosages ranging from 12.0 to 0.075 mg/kg. See Cancer Chemotherapy Reports, Part 3, 3, 1 (1972) for a comprehensive discussion of the protocol.

Assay [3] deals with L1210 cells. Description: L1210 in vitro (murine leukemia cell growth). The conditions noted are these: Mus musculus, L1210, 72 h; 3 days, 37° C., 5% CO2; read-out: L1210 in vitro ID50. The assay is classed as cell-based. The method, then: A test protocol uses L1210 cells, a murine leukemia cell line, grown in RPMI 1640 supplemented with 5% fetal bovine serum and gentamicin (50 μg/ml). Drug dilutions are prepared in the appropriate solvent and 20 μl of each dilution are added to 24-well Linbro tissue culture plates, followed by the addition of 2.0 ml of cell suspension containing 3×10^4 cells per ml. Solvent and medium controls are included in each test. After incubation at 37° C. for three days in 5% CO2, the contents of each well are removed and the cells counted in a ZBI Coulter counter. Percent growth are calculated relative to the controls and the levels of drug activity are expressed as ID50 in moles per liter.

In assay [4] the test system is HCT-8 (human colon adenocarcinoma) cells. Description: HCT-8 in vitro (human colon adenocarcinoma). The conditions noted are these: 60-65 hrs at 37° C., read-out: HCT-8 in vitro ID50. The format is cell-based. The method, then:
In addition to their usefulness as antibiotic and antifungal agents and as antileukemic agents, certain of the compounds of the invention display in vitro activity against solid tumors when tested by the following procedure.
HCT-8 (human colon adenocarcinoma) cells are trypsinized using Trypsin-EDTA. A single cell suspension is achieved by passing the cells through a 26 gauge needle with a 20 cc syringe. A cell suspension is prepared using RPMI 1640 growth medium (available from Gibco Laboratories)+10% fetal calf serum+50 μg/ml garamycin with a cell concentration of approximately 30,000 cells/ml. The cell suspension is dispensed in Linbro 24-well plates; 1 ml/well. The plates are incubated for approximately 48 hrs at 37° C. in a 5% CO2 atmosphere. At this time test compounds are added in the appropriate concentration. Five μl of the 200 μg/ml stock solution is added to each well in a primary test. Ten μl of the appropriate dilution is added to each well for a titration test. The plates are reincubated an additional 60-65 hrs at 37° C. in a 5% CO2 atmosphere. The test is read by lysing the cells using a mix of cationic surfactant, glacial acetic acid and sodium chloride. Two ml of the lysed cell suspension from each well is added to 8 ml of diluent. Each sample is read with a Coulter counter (ZBI model). The activity of each sample is measured as a percentage of the controls and the data is reported as ID50, that is the molar quantity of drug required to kill 50% of the tumor cells.

In assay [5] the test system is P388. The conditions noted are these: cited from earlier work.
Assay [6] concerns P-388 lymphocytic leukemia. The conditions noted are these: cited from earlier work.
Assay [7] concerns S. Faeculic. As to the kind of experiment: Inhibitory zone diameter, agar disc assay, S. faecalis. The format is cell-based, Streptococcus faecalis. The conditions noted are these: Enterococcus faecalis. How it is done:
(§1) 1. Preparation of inocula
(§2) The bacterial and yeast isolates are maintained in agar slants or in liquid media, hereby designated as inoculum media. The cultures are transferred at regular intervals in such media. (See Table for the corresponding inoculum media of each culture.) The organisms are generally transferred on to agar slants or liquid inoculum media and incubated overnight (18-20 hours): 37° C. for the bacterial isolates and 28° C. for the fungal cultures.
(§3) The microbial cells from the overnight agar slants are then scraped off and suspended in saline solution (0.85% NaCl). The microbial concentrations are adjusted to a light transmittancy of 20-35%, Junior Coleman Spectrophotometer (555M). For the organisms that are maintained in liquid media, an aliquot of the culture suspension is simply diluted with saline to 20-35% light transmittancy.
(§4) The above microbial suspension serve as inocula for the assay plates. Thus, 0.16-10 ml (see Table for exact amount) are used to inoculate 100 ml of the molten-agar assay medium.
(§5) Stainless steel frames, 12.3×25.3 cm (ID) and glass plates, 15.3×31.7 cm are used to make the test trays. The frames are attached to the plates with tape at each end and the inner edges sealed with 2% agar. Twenty five ml of inoculated assay medium is spread evenly on each tray and allowed to solidify. The trays are covered, inverted, and refrigerated until used.
(§6) The compounds or samples to be tested are dissolved in suitable solvents, e.g., alcohols, dimethylsulfoxide, or N,N-dimethylformamide. The samples are generally dissolved so that the final concentration of the solvent is <10%.* The compounds are tested at different concentrations: 3,000; 1,000; 500; 100; and 10 mcg/ml. Paper discs (12.7 mm diameter) are placed on the agar trays with forceps, then 0.08 ml of the dissolved compound is pipetted onto each disc using a 0.2 ml pipette.
(§7) The disked agar trays are incubated overnight (18-20 hours) at 37° C. for the bacterial cultures and 28° C. for the yeasts. […] The diameter of the zone is measured in mm. […]

Assay [8] has as its system E. coli. Description: Inhibitory zone diameter, agar disc assay, E. coli. The assay is classed as cell-based, Escherichia coli. How it is done:
as §1, §2, §3, §4, §5, §6, §7

Assay [9] concerns N. Catarrhali. As to the kind of experiment: Inhibitory zone diameter, agar disc assay, N. catarrhali. The format is cell-based. The conditions noted are these: Conc. 100 (mg/ml). The method, then:
as §1, §2, §3, §4, §5, §6, §7

In assay [10] the test system is B. Subtilis. As to the kind of experiment: Inhibitory zone diameter, agar disc assay, B. subtilis. The assay is classed as cell-based. The conditions noted are these: Bacillus subtilis; for zone of inhibition at 100 µg/mL: Conc. 100 (mg/ml). The method, then: as §1, §2, §3, §4, §5, §6, §7
Assay [11] deals with A. Viscolacti. As to the kind of experiment: Inhibitory zone diameter, agar disc assay, A. viscolacti. The assay is classed as cell-based. The conditions noted are these: read-out: Inhibitory Zone Diameter, A. viscolacti. The method, then: as §1, §2, §3, §4, §5, §6, §7
The mark [12] stands for this setting: 12.5 mg/kg i.p. (printed 125 for Example 1).

Structures can show the parent of a compound that is named as a salt.

Take `CCN(CC)CCNc1ccc(CO)c2sc3ccccc3c(=O)c12` [hycanthone]: in assay [1], the Experimental antitumor activity result is “Experimental antitumor activity has been reported”.

Regarding `CN(C)CCCNc1ccc([N+](=O)[O-])c2sc3ccccc3c(=O)c12` [Example 5 NH(CH2)3 NMe2 H, 1-[[3-(dimethylamino)propyl]amino]-4-nitro-9H-thioxanthen-9-one], the “P388 in vivo T/C × 100” value in [2] (50 mg/kg i.p.) turned out to be 190%. Further, the figures for the IC50 in assay [3] and in [4] were 96 nM and 460 nM, respectively.

Regarding `CCN(CC)CCNc1ccc(C)c2sc3ccc(O)cc3c(=O)c12` [7-hydroxy analog of lucanthone], the “in vivo P388 activity” value in assay [5] is listed as “shown to have in vivo P388 activity”.

Take `CCN(CC)CCNc1ccc([N+](=O)[O-])c2sc3cc(OC)ccc3c(=O)c12` [Example 5 NH(CH2)2 NEt2 6-OMe]: the “P388 in vivo T/C × 100” value in assay [2] (100 mg/kg i.p.) is 104%. Besides, the results for the IC50 in assay [3] and in assay [4] were 1200 nM and 1100 nM, respectively.

In the case of `Cc1ccc(NCCNCCO)c2c(=O)c3ccccc3sc12`, the “activity against the P-388 lymphocytic leukemia” value in assay [6] was “inactive”.

`CN(C)CCNc1ccc(NCCNCCO)c2sc3ccccc3c(=O)c12.Cl.Cl.Cl` [Example 1, 1-[[2-(Dimethylamino)ethyl]amino]-4-[[2-[(2-hydroxyethyl)amino]ethyl]amino]-9H-thioxanthen-9-one trihydrochloride]: the entries for the “P388 in vivo T/C × 100” value in [2] (setting [12]) and in assay [2] (25 mg/kg i.p.) were 190% and 236%, respectively. In assay [2] (25 mg/kg i.p.), the “Number of animals surviving 30 days and considered "cured"” value was 1. Further, the zone of inhibition at 1600 µg/mL in assay [7] (Conc. 1600 (mg/ml)) came to 19 mm. Moreover, in [8] (Escherichia coli, read-out: Inhibitory Zone Diameter, E. coli), the zone of inhibition at 3 g/mL stood at 17 mm. For the same molecule, the zone of inhibition at 100 µg/mL in assay [9] was determined as 21 mm; in [10], 19 mm. Also, the zone of inhibition at 100000 µg/mL in assay [11] worked out at 17 mm.

Consider `CN(C)CCNc1ccc(NCCN)c2sc3ccccc3c(=O)c12` [Example 2, 4-[(2-Aminoethyl)amino]-1-[[2-(dimethylamino)ethyl]amino]-9H-thioxanthen-9-one, hydrochloride], for which the “P388 in vivo T/C × 100” value in assay [2] (setting [12]) is recorded as 187%; in assay [2] (25 mg/kg i.p.), 212%. The “Number of animals surviving 30 days and considered "cured"” value in assay [2] (25 mg/kg i.p.) was 1. In assay [7] (Conc. 500 (mg/ml)), this molecule registered a zone of inhibition at 500 µg/mL of 14 mm. The molecule also gave a zone of inhibition at 1000 µg/mL in [8] (Escherichia coli, Conc. 1000 (mg/ml)) of 14 mm. For the same molecule, the results for the zone of inhibition at 100 µg/mL in assay [9] and in [10] were 20 mm and 16 mm, respectively. Also, the zone of inhibition at 100000 µg/mL in assay [11] is 23 mm.

Turning to `COc1ccc2sc3c([N+](=O)[O-])ccc(NCCN(C)C)c3c(=O)c2c1` [Example 5 NH(CH2)2 NMe2 7-OMe, 1-[[2-(Dimethylamino)ethyl]amino]-7-methoxy-4-nitro-9H-thioxanthen-9-one], in assay [2] (100 mg/kg i.p.), the “P388 in vivo T/C × 100” value is listed as 178%. In addition, the IC50 in assay [3] is 250 nM; in assay [4], 1000 nM.

On to `CN(C)CCNc1ccc([N+](=O)[O-])c2sc3ccccc3c(=O)c12` [Example 4, 1-[[2-(dimethylamino)ethyl]amino]-4-nitro-9H-thioxanthen-9-one], for which the IC50 in [3] was determined as 120 nM; in [4], 270 nM.

On to `Cc1ccc(NCCN(C)C)c2c(=O)c3ccccc3sc12`, for which, in assay [6], the “activity against the P-388 lymphocytic leukemia” value is “inactive”.

Take `CN(C)CCNc1ccc([N+](=O)[O-])c2sc3ccc(O)cc3c(=O)c12` [Example 5 NH(CH2)2 NMe2 7-OH, 1-[[2-(Dimethylamino)ethyl]amino]-7-hydroxy-4-nitro-9H-thioxanthen-9-one]: the IC50 in assay [3] turned out to be 6.5 nM.

`CCN(CC)CCNc1ccc(C)c2sc3ccccc3c(=O)c12` [lucanthone]: the Experimental antitumor activity result in assay [1] is recorded as “Experimental antitumor activity has been reported”.

As to `CN(C)CCNc1ccc(NCCCN)c2sc3ccccc3c(=O)c12.Cl.Cl.Cl` [Example 3, 4-[(3-Aminopropyl)amino]-1-[[2-(dimethylamino)ethyl]amino]-9H-thioxanthen-9-one, trihydrochloride], the “P388 in vivo T/C × 100” value in assay [2] (25 mg/kg i.p.) is listed as 125%. In addition, in assay [7] (Conc. 3000 (mg/ml)), the zone of inhibition at 3000 µg/mL turned out to be 18 mm. The “Inhibitory Zone Diameter, E. coli” value in [8] (concentration not given) stood at 0 mm. For the same molecule, the zone of inhibition at 100 µg/mL in assay [9] is 24 mm. The zone of inhibition at 1000 µg/mL in assay [10] (Conc. 1000 (mg/ml)) was 16 mm. In addition, the zone of inhibition at 100000 µg/mL in assay [11] came to 14 mm.

For `CCN(CC)CCNc1ccc(N)c2sc3ccccc3c(=O)c12` [Example 1c], the “activity against the P-388 lymphocytic leukemia” value in assay [6] was “inactive”.
